Measured values taken from ChEMBL document CHEMBL3352700 (Bioorg Med Chem Lett, 2015).

Experiments:
[1] = Effective permeability by PAMPA method; type: ADME; details: read-out: Peff
[2] = Cmax in IGS rat at 3 mg/kg, po administered as single dose; type: ADME, organism-based; design: dose 3 mg/kg, route oral; details: in vivo
Rattus norvegicus [3] = assay: AUC (infinity) in IGS rat at 3 mg/kg, po administered as single dose; type: ADME, organism-based, Plasma; design: time infinity, dose 3 mg/kg, route oral; details: in vivo
[4] = Oral bioavailability in IGS rat at 3 mg/kg administered as single dose; type: ADME, organism-based; details: in vivo
Rattus norvegicus [5] = assay: Volume of distribution at steady state in IGS rat at 3 mg/kg, po administered as single dose; type: ADME, organism-based; design: dose 3 mg/kg, route oral; details: in vivo
[6] = Cmax in Beagle Marshall dog at 1 mg/kg, po administered as single dose; type: ADME, organism-based, Canis lupus familiaris; design: dose 1 mg/kg, route oral; details: in vivo
[7] = AUC (infinity) in Beagle Marshall dog at 1 mg/kg, po administered as single dose; type: ADME, organism-based, Canis lupus familiaris; design: time infinity, dose 1 mg/kg, route oral; details: plasma
[8] = Oral bioavailability in Beagle Marshall dog at 1 mg/kg administered as single dose; type: ADME, organism-based, Canis lupus familiaris; details: in vivo
[9] = Volume of distribution at steady state in Beagle Marshall dog at 1 mg/kg administered as single dose; type: ADME, organism-based, Canis lupus familiaris; design: dose 1 mg/kg; details: in vivo, read-out: Vdss
[10] = AUC (infinity) in IGS rat at 1 mg/kg, iv administered as single dose; type: ADME, organism-based; design: time infinity, dose 1 mg/kg, route intravenous; details: plasma
[11] = Cmax in rat at 300 mg/kg, po; type: ADME, organism-based; design: dose 300 mg/kg, route oral; details: in vivo

SMILES: CN(C)CCn1c(CC(C)(C)C)nc2cc(S(=O)(=O)C3CN(C(N)=O)C3)ccc21
- Papp [1]: 0.6 ×10⁻⁶ cm/s

SMILES: CN(C)CCn1c(CC(C)(C)C)nc2cc(S(=O)(=O)C3CN(C)C3)ccc21
- Papp [1]: 7.8 ×10⁻⁶ cm/s

SMILES: CCN1CC(S(=O)(=O)c2ccc3c(c2)nc(CC(C)(C)C)n3CCN(C)C)C1
- Papp [1]: 10 ×10⁻⁶ cm/s

SMILES: CN(C)CCn1c(CC(C)(C)C)nc2cc(S(=O)(=O)C3CN(CC(F)(F)F)C3)ccc21
- Papp [1]: 18 ×10⁻⁶ cm/s

SMILES: CN(C)CCn1c(CC(C)(C)C)nc2cc(S(=O)(=O)C3CN(CCO)C3)ccc21
- Papp [1]: 1.5 ×10⁻⁶ cm/s
- Cmax [2]: 38 ng/mL
- AUC (Rattus norvegicus [3]): 300 ng·h/mL
- bioavailability [4]: 20%
- Vdss (Rattus norvegicus [5]): 5.696 L/kg
- Cmax [6]: 102 ng/mL
- AUC(0-inf) [7]: 1000 ng·h/mL
- bioavailability [8]: 72%
- Vd [9]: 5.69 L/kg
- AUC(0-inf) [10]: 391 ng·h/mL
- Cmax [11]: 1800 ng/mL

SMILES: CN(C)CCn1c(CC(C)(C)C)nc2cc(S(=O)(=O)C3CN(S(C)(=O)=O)C3)ccc21
- Papp [1]: 5.9 ×10⁻⁶ cm/s
